The source of these data is patent US12551465B2 (priority 2020, dated 2026).

SMILES strings stand for the structures. Where two headings read alike, the source gives them in different places. Marks after values point to notes of the source that are not given here.

Test in series [1]: not given
The source holds these as a separate data set.

Series [2] relates to healthy volunteers. Description: Clinical safety and tolerability, single dose, healthy volunteers (Example 1).
Description: (§3) In this study, a total of 24 subjects were randomized 1:1:1 to three cohorts and subjected to a total of four stages: screening, treatment period 1, drug withdrawal period, and treatment period 2. The ratio between the drug administration group and the non-drug-administration group (placebo) was 6:2.
(§4) Primary assessment variables were safety, tolerability and side effects, and the clinical trial items were 12-electrode electrocardiogram (including corrected QT interval (calculated by Fridericia formula) [QTc(F)]), QT interval, QRS interval, PR interval, and ventricular rate), vital signs (blood pressure, pulse, body temperature, respiration rate), hypersensitivity (determined by ECG recording and vital signs), clinical laboratory assessment (hematology, blood chemistry, urinalysis, etc.), and adverse events (including serious adverse events).
The test system of series [3] is patients with HOCM. To be noted: for Mean LVOT gradient at rest, actual measured value / Mean LVOT gradient at rest, decrease rate / Mean LVOT gradient with Valsalva maneuver, actual measured value / Mean LVOT gradient with Valsalva maneuver, decrease rate: drug (6) and placebo (2). The source says: Echocardiography (heart scanning): In a state in which the patient is lying flat, a transducer is placed on the chest of the patient, and high-frequency sound waves (sound waves higher than those that humans can hear) are delivered into the body towards the heart. As the sound wave passes through other parts of the body, a part of the wave bounces back to the transducer, and the image of the heart and blood flow is interpreted by the ultrasound machine. This is to examine the heart's ability to eject blood, as well as heart abnormalities, including the atria, valves and major blood vessels.
(§1) A total of up to 24 subjects were enrolled in 3 cohorts (8 per cohort). The subjects underwent at least one set of screening, hospital stay, and the end of study (EOS). Based on (1) safety data reviewed by the Safety Review Committee (SRC) and (2) consent to participate, subjects who underwent EOS in one cohort study could participate in another subsequent cohort study after a washout period of at least 7 days after they received the last investigational medicinal product on day 5 of the previous cohort study.
(§2) If subjects participated in another cohort study of Cohort 1 or 2, screening and inclusion/exclusion criteria were re-evaluated after the washout period. […] All subjects in each cohort were reviewed for safety data by the Safety Review Committee (SRC) after EOS before enrollment in the next dose cohort. The maximum duration of the clinical trial was over 15 weeks, including 9 weeks of screening, approximately 3 weeks of hospital stay and 3 weeks of EOS.
In the case of once-a-day administration, the test drug was administered in the morning of each administration day. In the case of twice-a-day administration, the test drug was administered at 12-hour intervals (in the morning and in the evening) on from day 1 to day 4 and administered only in the morning on day 5.
Subjects who meet the following criteria are considered eligible to participate in the clinical trial: • patients with a maximal left ventricular wall thickness of 15 mm or more (13 mm or more for patients with a family history); • patients with a left ventricular outflow tract (LVOT) gradient of 30 mmHg or more at rest, or an LVOT gradient of 50 mmHg or more after provocation (including provocation such as Valsalva maneuver, standing, post-exercise, etc.); or • patients with a left ventricular ejection fraction (LVEF) of 55% or more. Exclusion Criteria
Secondary assessment variables were pharmacokinetics including Cmax, and the left ventricular outflow track (LVOT) gradient and left ventricular ejection fraction (LVEF) by transthoracic echocardiography (TTE), as wells as blood B-natriuretic peptide (BNP) and troponin levels.
In Example 3 above, the left ventricular outflow track (LVOT) gradient), which is an effect indicator, was measured on day 5 of administration.

For series [4], the system named is healthy volunteers. Description: Clinical safety and tolerability, repeated dose, healthy volunteers (Example 2).
Description: as §3
(§5) Primary assessment variables were safety, tolerability and side effects, and the clinical test items were 12-electrode electrocardiogram (including corrected QT interval (calculated by Fridericia formula) [QTc(F)]), QT interval, QRS interval, PR interval, and ventricular rate), vital signs (blood pressure, pulse, body temperature, respiration rate), hypersensitivity (determined by ECG recording and vital signs), clinical laboratory assessment (hematology, blood chemistry, urinalysis, etc.), and adverse events (including serious adverse events).
Series [5] has as its system healthy volunteers. Description: Electrocardiogram (QTcF, QRS) after single dose in healthy volunteers (Example 1).
Description: (§6) The electrocardiogram is checked after resting in a supine position in a quiet environment (e.g., without distracting factors) for at least 5 minutes. A sticky pad is attached to the body, and the pad has a thin wire connected to a machine that records measurements of the heart and prints a report. Each time an electrocardiogram is performed, the clinical trial staff performs three electrocardiogram recordings. The time between ECG recordings should not exceed 2 minutes, and the total time should not exceed 10 minutes.
as §4
For participants in Cohorts 1 to 3, electrocardiogram, pharmacodynamic assessment (echocardiography), etc. were performed on one day before administration, the day of administration (day 1), and for two days after administration (48 hours, day 2 and day 3).
Series [6] relates to healthy volunteers. Description: Electrocardiogram (QTcF, QRS) after repeated dose in healthy volunteers (Example 2).
Description: as §6, §5
For participants in Cohort 4, electrocardiogram, pharmacodynamic assessment (echocardiography), etc. were performed on one day before administration, the day of administration (day 1), one day after administration (day 2), day 5 and day 6.
For participants in Cohort 5, electrocardiogram, pharmacodynamic assessment (echocardiography), etc. were performed on one day before administration, the day of administration (day 1), and day 5, day 14 and day 15.
For participants in Cohort 6, electrocardiogram, pharmacodynamic assessment (echocardiography), etc. were performed on one day before administration, the day of administration (day 1), and day 5 and day 14.
Series [7] deals with patients with HOCM. The conditions noted are these: Cohort 1 of Example 3, 200 mg once a day for 5 days.
Description: as §1, §2

Setting [8] is: Cohort 6 (control): 150 mg oral three times a day for 14 days, PK on day 14.
Where [9] appears, read: Cohort 6: racemate 150 mg three times a day for 14 days, day 14, only S(−)-cibenzoline moiety.
Setting [10] is: Cohort 3 (control): 150 mg oral three times a day, healthy volunteers.
Where [11] appears, read: Cohort 3: racemate 150 mg oral three times a day, only S(−)-cibenzoline moiety.
[12] abbreviates: Cohort 1, 200 mg single dose, Day 1, 1.5 hr after administration.
Setting [13] is: Cohort 1, 200 mg single dose, Day 1, 3 hr after administration.
Setting [14] is: Cohort 1, 200 mg single dose, Day 1, 8 hr after administration.
Where [15] appears, read: Cohort 1, 200 mg single dose, Day 1 before administration (baseline).
Setting [16] is: Cohort 2, 300 mg single dose, Day 1, 1.5 hr after administration.
[17] abbreviates: Cohort 2, 300 mg single dose, Day 1, 3 hr after administration.
Where [18] appears, read: Cohort 2, 300 mg single dose, Day 1, 8 hr after administration.
[19] abbreviates: Cohort 2, 300 mg single dose, Day 1 before administration (baseline).
[20] abbreviates: Cohort 4, 200 mg once a day, Day 5, 1.5 hr after administration.
Where [21] appears, read: Cohort 4, 200 mg once a day, Day 5, 3 hr after administration.
The mark [22] stands for this setting: Cohort 4, 200 mg once a day, Day 5, 8 hr after administration.
The mark [23] stands for this setting: Cohort 4, 200 mg once a day, Day 5 before administration.
Where [24] appears, read: Cohort 5, 300 mg once a day, Day 14, 1.5 hr after administration.
Where [25] appears, read: Cohort 5, 300 mg once a day, Day 14, 3 hr after administration.
Where [26] appears, read: Cohort 5, 300 mg once a day, Day 14, 8 hr after administration.
Setting [27] is: Cohort 5, 300 mg once a day, Day 14 before administration.
[28] abbreviates: HOCM Cohort 1, 200 mg once a day, before administration (day 5), before unblinding: drug (6) and placebo (2).
Setting [29] is: HOCM Cohort 1, 200 mg once a day, day 5, 2.5 hours after administration.
Where [30] appears, read: HOCM Cohort 1, 200 mg once a day, day 5, 6 hours after administration.

For `O=C(O)CCC(=O)O.c1ccc(C2(c3ccccc3)CC2C2=NCCN2)cc1` (racemic) [racemic cibenzoline succinate], under setting [8], the Cmax is listed as 608.1 ng/mL and the Tmax is recorded as 1.3 h. Besides, the “AUC (extract of only S(−)-cibenzoline moiety)” value (Cohort 6, day 14, only S(−)-cibenzoline moiety, simulation: 8-hour PK data multiplied by 3) is recorded as “(4732.2)* ng · hr/mL”. For the setting “Cohort 6: 150 mg three times a day for 14 days, simulation: 8-hour day 14 PK data multiplied by 3”, the AUC is reported as 8876.4* ng · hr/mL. Also, under setting [9], the “Cmax (extract of only S(−)-cibenzoline moiety)” value is “(334.2) ng/mL” and the “Tmax (extract of only S(−)-cibenzoline moiety)” value is on record as “(1.0) h”. Moreover, in series [1] (setting [10]), the AUC worked out at 7540.4 ng·h/mL, the maximum concentration (Cmax) is 367.4 ng/mL and the time to peak (Tmax) was 1.7 h. In series [1] (setting [11]), the “AUC (extract of only S(−)-cibenzoline moiety)” value was “(3610.3) ng · hr/mL”, the “Cmax (extract of only S(−)-cibenzoline moiety)” value is on record as “(193.2) ng/mL” and the “Tmax (extract of only S(−)-cibenzoline moiety)” value is “(1.7) h”.
On to `c1ccc(C2(c3ccccc3)C[C@@H]2C2=NCCN2)cc1` [S(−)-cibenzoline, S-2-(2,2-diphenylcyclopropyl)-4,5-dihydro-1H-imidazole], for which the safety and tolerability entry was “safe and tolerable” in series [2] (200 mg or 300 mg once a day, single dose, healthy volunteers); “safe and tolerable” in series [4] (200 mg or 300 mg once a day, repeated dose, healthy volunteers). Moreover, the serious side effects result in series [2] (Cohorts 1 and 2 (200 mg or 300 mg once a day, single dose) compared to Cohort 3, healthy volunteers) is “no serious side effects occurred”; in series [4] (Cohorts 4 and 5 (200 mg once a day 5 days; 300 mg once a day 14 days) compared to Cohort 6) it was “serious side effects did not occur”. Moreover, in series [3] (HOCM patients, Example 3), the “decrease of left ventricular outflow tract (LVOT) gradient after drug administration” value is “about 10 mmHg”.
Regarding `c1ccc(C2(c3ccccc3)C[C@@H]2C2=NCCN2)cc1` [S(−)-cibenzoline succinate], the QRS in series [5] (setting [12]) turned out to be 102 ms; in series [5] (setting [13]) it was 107 ms; in series [5] (setting [14]), 99 ms; in series [5] (setting [15]), 92 ms; in series [5] (setting [16]) it was 107 ms; in series [5] (setting [17]), 116 ms. For the same compound, the QRS in series [5] (setting [18]) was found to be 107 ms; in series [5] (setting [19]), 101 ms; in series [6] (setting [20]) it was 100 ms; in series [6] (setting [21]) it was 102 ms; in series [6] (setting [22]), 96 ms; in series [6] (setting [23]), 92 ms. Also, the QRS in series [6] (setting [24]) is listed as 124 ms; in series [6] (setting [25]), 130 ms; in series [6] (setting [26]), 110 ms; in series [6] (setting [27]), 106 ms. The QTcF in series [5] (setting [12]) is on record as 412 ms; in series [5] (setting [13]) it was 426 ms; in series [5] (setting [14]), 408 ms; in series [5] (setting [15]), 406 ms; in series [5] (setting [16]), 419 ms; in series [5] (setting [17]), 429 ms. For the same compound, the QTcF in series [5] (setting [18]) came to 415 ms; in series [5] (setting [19]), 411 ms; in series [6] (setting [20]), 417 ms; in series [6] (setting [21]), 433 ms; in series [6] (setting [22]), 417 ms; in series [6] (setting [23]), 399 ms. Besides, the QTcF stood at 435 ms in series [6] (setting [24]), 444 ms in series [6] (setting [25]), 427 ms in series [6] (setting [26]) and 404 ms in series [6] (setting [27]). For the same compound, the drug-related adverse event result in series [7] is “no drug-related adverse event occurred”. Also, the “Mean LVOT gradient at rest” value in series [3] (setting [28]) was found to be 90.18 mmHg. The “Mean LVOT gradient with Valsalva maneuver” value in series [3] (setting [28]) came to 128.50 mmHg. Moreover, the “Mean LVOT gradient at rest, actual measured value” was found to be 77.09 mmHg in series [3] (setting [29]) and 88.07 mmHg in series [3] (setting [30]). For the same compound, the results for the “Mean LVOT gradient at rest, decrease rate” value in series [3] (setting [29]) and in series [3] (setting [30]) were 15% and 2%, respectively. For the same compound, the “Mean LVOT gradient with Valsalva maneuver, actual measured value” in series [3] (setting [29]) is given as 98.22 mmHg; in series [3] (setting [30]), 126.52 mmHg. In addition, the entries for the “Mean LVOT gradient with Valsalva maneuver, decrease rate” value in series [3] (setting [29]) and in series [3] (setting [30]) were 24% and 2%, respectively.
